Laboratory results reported in US9296725B2, “Heterocyclyl pyrimidine analogues as TYK2 inhibitors” (Cellzome Limited, priority 2012, dated 2016).

Columns and labels:
JAK2 = biological target: T1, JAK2 (Homo sapiens, UniProt O60674); test: Kinobeads assay, JAK2 (competition binding in mixed Molt4/Ramos cell lysate, dot blot detection); details: read-out: JAK2 Band (Kinobeads assay potency, IC50)
T1 construct: endogenous in cells; host or cells: Molt4 (ATCC CRL-1582) and Ramos (ATCC CRL-1596), mixed lysate 1:2
Procedure, shortened: (§1)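 Competition binding: compound dilutions (1:3 series, 9 steps) plus immobilized aminopyrido-pyrimidine beads incubated 3 h in the cold with mixed Molt4/Ramos lysate (1:2) at 10 mg/mL protein. Bead-bound JAK2/TYK2 eluted and quantified by antibody dot blot with infrared detection; IC50 from dose-response curves.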

TYK2 = biological target: T2, TYK2 (Homo sapiens, UniProt P29597); test: Kinobeads assay, TYK2 (competition binding in mixed Molt4/Ramos cell lysate, dot blot detection); details: Kinobeads assay, Molt4/Ramos lysate; read-out: TYK2 Band (Kinobeads assay potency, IC50)
T2 construct: endogenous in cells; host or cells: Molt4 (ATCC CRL-1582) and Ramos (ATCC CRL-1596), mixed lysate 1:2
Procedure, shortened: as §1

T1 sequence (O60674 whole entry): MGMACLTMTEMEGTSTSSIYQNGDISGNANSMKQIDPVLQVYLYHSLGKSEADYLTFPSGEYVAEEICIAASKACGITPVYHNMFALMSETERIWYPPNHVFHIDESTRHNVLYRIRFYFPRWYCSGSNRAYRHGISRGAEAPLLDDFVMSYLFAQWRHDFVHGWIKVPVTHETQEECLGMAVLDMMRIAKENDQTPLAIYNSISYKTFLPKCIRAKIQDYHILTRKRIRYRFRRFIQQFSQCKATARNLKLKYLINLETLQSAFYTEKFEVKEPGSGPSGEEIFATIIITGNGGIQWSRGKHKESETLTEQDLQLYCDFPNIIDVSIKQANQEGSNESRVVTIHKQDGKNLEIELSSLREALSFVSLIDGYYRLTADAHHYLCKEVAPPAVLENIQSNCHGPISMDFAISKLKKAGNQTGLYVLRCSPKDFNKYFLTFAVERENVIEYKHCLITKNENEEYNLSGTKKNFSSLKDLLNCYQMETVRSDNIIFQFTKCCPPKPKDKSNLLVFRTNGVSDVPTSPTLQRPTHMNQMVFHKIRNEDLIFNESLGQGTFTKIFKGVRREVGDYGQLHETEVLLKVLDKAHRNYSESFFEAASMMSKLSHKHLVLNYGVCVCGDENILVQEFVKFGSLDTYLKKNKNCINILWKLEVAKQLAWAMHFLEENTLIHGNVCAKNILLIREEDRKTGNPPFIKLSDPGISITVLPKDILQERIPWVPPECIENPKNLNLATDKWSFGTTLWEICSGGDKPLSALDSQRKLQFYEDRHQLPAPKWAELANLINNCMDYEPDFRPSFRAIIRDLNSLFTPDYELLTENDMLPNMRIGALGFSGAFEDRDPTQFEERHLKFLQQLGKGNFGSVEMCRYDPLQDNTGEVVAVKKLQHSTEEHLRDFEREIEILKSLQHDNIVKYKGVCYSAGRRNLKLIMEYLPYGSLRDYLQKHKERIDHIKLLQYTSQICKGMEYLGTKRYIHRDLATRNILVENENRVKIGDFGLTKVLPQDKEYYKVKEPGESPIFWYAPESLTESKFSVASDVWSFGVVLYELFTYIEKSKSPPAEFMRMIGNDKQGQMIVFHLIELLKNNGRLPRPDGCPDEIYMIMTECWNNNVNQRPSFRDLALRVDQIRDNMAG
T2 sequence (P29597 whole entry): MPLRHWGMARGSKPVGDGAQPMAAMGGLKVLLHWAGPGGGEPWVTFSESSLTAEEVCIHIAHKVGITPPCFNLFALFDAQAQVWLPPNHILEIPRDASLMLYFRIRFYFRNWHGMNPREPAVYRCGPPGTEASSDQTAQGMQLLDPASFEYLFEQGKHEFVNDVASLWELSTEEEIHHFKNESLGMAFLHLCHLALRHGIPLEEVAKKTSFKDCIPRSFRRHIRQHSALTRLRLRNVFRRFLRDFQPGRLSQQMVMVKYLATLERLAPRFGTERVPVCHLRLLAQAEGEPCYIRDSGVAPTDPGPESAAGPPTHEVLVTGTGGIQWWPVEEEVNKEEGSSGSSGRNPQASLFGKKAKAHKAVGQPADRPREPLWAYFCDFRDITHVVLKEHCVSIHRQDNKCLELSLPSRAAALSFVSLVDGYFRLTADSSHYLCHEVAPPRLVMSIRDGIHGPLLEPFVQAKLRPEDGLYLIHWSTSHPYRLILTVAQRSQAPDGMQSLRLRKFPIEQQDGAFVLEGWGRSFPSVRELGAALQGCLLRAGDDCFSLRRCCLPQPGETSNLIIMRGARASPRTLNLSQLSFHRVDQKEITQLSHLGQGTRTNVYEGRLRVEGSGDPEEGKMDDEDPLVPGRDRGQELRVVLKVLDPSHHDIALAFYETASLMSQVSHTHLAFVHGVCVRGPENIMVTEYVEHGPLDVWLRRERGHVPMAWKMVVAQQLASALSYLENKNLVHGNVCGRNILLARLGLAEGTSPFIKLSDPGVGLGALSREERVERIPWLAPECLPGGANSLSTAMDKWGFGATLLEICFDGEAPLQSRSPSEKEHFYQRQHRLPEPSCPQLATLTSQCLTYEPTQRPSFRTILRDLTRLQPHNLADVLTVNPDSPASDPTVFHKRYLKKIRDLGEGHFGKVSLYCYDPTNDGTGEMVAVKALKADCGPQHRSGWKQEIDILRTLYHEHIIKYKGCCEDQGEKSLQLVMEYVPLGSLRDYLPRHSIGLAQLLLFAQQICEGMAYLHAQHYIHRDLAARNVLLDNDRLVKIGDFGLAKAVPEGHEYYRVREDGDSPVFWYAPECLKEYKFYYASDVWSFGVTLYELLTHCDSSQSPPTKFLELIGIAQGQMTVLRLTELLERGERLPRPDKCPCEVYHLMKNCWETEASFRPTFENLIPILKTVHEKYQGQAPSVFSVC

| IC50 (JAK2) [µM] | IC50 (TYK2) [µM] | SMILES |
| --- | --- | --- |
| 1 to 10 | 0.01 to 0.1 | O=C(Cn1cc(Nc2ncc(Cl)c(NCc3ccccc3)n2)cn1)N1CCCC1 [Example I-196] |
| 1 to 10 | 0.1 to 1 | CS(=O)(=O)Cn1cc(Nc2ncc(Cl)c(NCc3ccccc3)n2)cn1 [Example I-254] |
| 1 to 10 | ≤ 0.01 | Cc1cccc(F)c1CNc1ccnc(Nc2cnn(CC(=O)NC(C)C)c2)n1 [Example I-155] |
| 1 to 10 | 0.01 to 0.1 | NC(=O)Cn1cc(Nc2ncc(F)c(NCc3c(Cl)cccc3Cl)n2)cn1 [Example I-328] |
| 1 to 10 | ≤ 0.01 | OCCn1cc(Nc2ncc(F)c(NCc3c(F)cccc3F)n2)cn1 [Example I-204] |
| 0.1 to 1 | ≤ 0.01 | Cc1cnc(Nc2cnn(CC(=O)N3CCOCC3)c2)nc1NCc1c(F)ccc(F)c1F [Example I-423] |
| 1 to 10 | 0.01 to 0.1 | CNC(=O)Cn1cc(Nc2ncc(Cl)c(NCc3c(F)ccc(C)c3F)n2)cn1 [Example I-284] |
| 0.1 to 1 | ≤ 0.01 | COc1ccc(Cl)c(CNc2ccnc(Nc3cnn(CC(=O)N[C@@H](C)CO)c3)n2)c1F [Example I-122] |
| 1 to 10 | 0.1 to 1 | O=C(Cn1cc(Nc2ncc(Cl)c(NCc3cccnc3)n2)cn1)N1CCOCC1 [Example I-337] |
| 0.1 to 1 | 0.1 to 1 | Fc1cc(F)c(F)c(CNc2nc(Nc3cnn(CC(F)F)c3)ncc2Cl)c1 [Example I-468] |
| > 10 | 0.01 to 0.1 | CC(C#N)NC(=O)Cn1cc(Nc2nccc(NCc3c(F)cc(F)cc3F)n2)cn1 (stereo not drawn) [Example I-5, N-(1-cyanoethyl)-2-(4-((4-((2,4,6-trifluorobenzyl)amino)pyrimidin-2-yl)amino)-1H-pyrazol-1-yl)acetamide] |
| 0.1 to 1 | 0.01 to 0.1 | O=C(Cn1cc(Nc2ncc(Cl)c(NCc3ccccc3)n2)cn1)N1CC2CCC1CN2 (stereo not drawn) [Example I-194] |
| > 10 | 0.1 to 1 | CC(C)(C)OC(=O)N1CCN(C(=O)Cn2cc(Nc3ncc(Cl)c(NCc4ccccc4)n3)cn2)CC1 [Example I-207] |
| > 10 | 0.01 to 0.1 | COc1cc(F)c(CNc2nc(Nc3cnn(CC(=O)NC(C)C)c3)ncc2F)c(F)c1 [Example I-70] |
| 1 to 10 | ≤ 0.01 | C[C@@H](CO)NC(=O)Cn1cc(Nc2nccc(NCc3c(F)ccc(C#N)c3F)n2)cn1 [Example I-153] |
| 1 to 10 | 0.01 to 0.1 | CC(C)NC(=O)Cn1cc(Nc2nccc(NCc3c(Cl)ccc(F)c3F)n2)cn1 [Example I-93] |
| 0.1 to 1 | 0.01 to 0.1 | CNC(=O)Cn1cc(Nc2ncc(Cl)c(NCc3cc(C(F)(F)F)ccc3F)n2)cn1 [Example I-279] |
| 0.1 to 1 | 0.1 to 1 | CNC(=O)Cn1cc(Nc2ncc(Cl)c(NCc3ccccc3S(=O)(=O)NC)n2)cn1 [Example I-355] |
| 1 to 10 | ≤ 0.01 | COc1ccc(F)c(CNc2nc(Nc3cnn(CC(=O)N(C)C)c3)ncc2F)c1F [Example I-13] |
| 1 to 10 | 0.1 to 1 | CS(=O)(=O)NCc1cccc(CNc2nc(Nc3cnn(CC(N)=O)c3)ncc2Cl)c1 [Example I-397] |
| 1 to 10 | 0.01 to 0.1 | Cn1cc(Nc2ncc(Cl)c(NCc3cccc(C#N)c3)n2)cn1 [Example I-159] |
| 1 to 10 | 0.01 to 0.1 | CN(C)C(=O)Cn1cc(Nc2ncc(F)c(NCc3cccc(OC(F)F)c3)n2)cn1 [Example I-14] |
| > 10 | 0.01 to 0.1 | CNC(=O)Cn1cc(Nc2ncc(F)c(NCc3cccc(OC(F)F)c3)n2)cn1 [Example I-408] |
| 0.1 to 1 | 0.01 to 0.1 | OCCn1cc(Nc2ncc(Cl)c(NCc3cccc(F)c3)n2)cn1 [Example I-171] |
| 0.1 to 1 | 0.01 to 0.1 | Cc1cnc(Nc2cnn(CC(=O)O)c2)nc1NCc1c(F)ccc(F)c1F [Example I-424] |
| 1 to 10 | 0.1 to 1 | COc1ccccc1CNc1nc(Nc2cnn(CCO)c2)ncc1Cl [Example I-185] |
| > 10 | 0.01 to 0.1 | N#CCNC(=O)Cn1cc(Nc2nccc(NCc3c(F)cc(F)cc3F)n2)cn1 [Example I-110] |
